Assay [1] concerns the target unphosphorylated PDGFRβ kinase (uPDGFRβ, Seq. ID No. 3) (Homo sapiens (Human), UniProt P09619). In words: Unphosphorylated PDGFRβ kinase assay (coupled pyruvate kinase/lactate dehydrogenase). In kind it is biochemical. The note with it: enzymatic assay, ATP 500 μM. The method, boiled down: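 Construct residues 557-1106, unphosphorylated, 15.7 nM, with poly E4Y 2.5 mg/mL and 500 μM ATP, Tris pH 7.5, 1% DMSO, 30 °C. ADP coupled to NADH oxidation via PK/LDH, A340 followed 4 h; rate from 1.5-2.5 h versus no-compound control, IC50 from percent-inhibition series.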

The target of assay [2] is cMET kinase (Homo sapiens (Human), UniProt P08581). In words: cMET kinase inhibition (Table 4). In kind it is biochemical.
Assay [3] concerns osteoclast precursors. The assay can be described thus: Osteoclast tartrate-resistant acid phosphatase assay. In kind it is cell-based. The note with it: Osteoclast, 7-14 days, RANKL and M-CSF.
Assay [4] deals with unphosphorylated c-FMS kinase (uFMS, Seq. ID no. 1) (Homo sapiens (Human), UniProt P07333). In words: uFMS kinase assay (ADP production coupled to pyruvate kinase/lactate dehydrogenase). In kind it is biochemical. The method, boiled down:
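Unphosphorylated FMS (10 nM) with polyE4Y 1 mg/mL and 500 μM ATP in 90 mM Tris pH 7.5, 10 mM MgCl2, 0.2% octyl-glucoside, 1% DMSO. ADP formation was coupled via pyruvate kinase/LDH to NADH oxidation, followed at A340 for 4 h at 30° C.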

Assay [5] addresses c-FMS kinase in THP-1 cells (Homo sapiens (Human), UniProt P07333). In words: Phospho-FMS ELISA assay in THP-1 cells. In kind it is cell-based. To be noted: 4 h compound, M-CSF stimulation 5 min; read-out: pFMS inhibition in THP-1 cells. Here is the method: THP-1 cells (catalog #TIB-202) were obtained from the ATCC. Briefly, cells were grown in RPMI 1640 supplemented with 10% characterized fetal bovine serum, 1% sodium pyruvate, 1% Penicillin-Streptomycin-Glutamine (PSG) and 55 uM 2-mercaptoethanol (Invitrogen, Carlsbad, Calif.) at 37 degrees Celsius, 5% CO2, 95% humidity. Cells were allowed to expand until reaching 70-95% confluency at which point they were subcultured or harvested for assay use.
A serial dilution of test compound was diluted 1:100 in assay medium (RPMI 1640 supplemented with 10% characterized fetal bovine serum) in a 96 well black clear bottom plate (Corning, Corning, N.Y.). In a separate 96 well black clear bottom plate, one hundred and fifty thousand THP-1 cells were added per well in 100 μL in assay medium. Fifty microliters of diluted compound was then added to the cells. Plates were incubated for 4 hours at 37 degrees Celsius, 5% CO2, 95% humidity. At the end of the incubation period, cells were stimulated with 50 μL of a 100 nM solution of recombinant human M-CSF (catalog #216-MC, R & D Systems, Minneapolis, Minn.) in assay medium and the plate was incubated for 5 minutes at 37 degrees Celsius, 5% CO2, 95% humidity. Lysates were prepared and used to perform the phospho-FMS ELISA as described by the manufacturer (catalog #DYC3268, R & D Systems, Minneapolis, Minn.). GraphPad Prism was used to calculate IC50 values obtained from data generated from the ELISA assay.
On the technique in general: An ELISA detects its analyte on a solid surface through an enzyme-linked reagent.

In assay [6] the test system is M-NFS-60 cells. The assay can be described thus: M-NFS-60 cell proliferation assay (resazurin). The note with it: 67 h incubation. In kind it is cell-based. The method, boiled down:
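Cells kept in medium containing 20 ng/mL mouse recombinant M-CSF. Fluorescence was read at ex 540/em 600 nm, and IC50 was fitted from percent inhibition across a range of inhibitor concentrations.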
In general terms: Alamar Blue is a resazurin reagent that responds to reducing activity.

Assay [7] addresses KDR kinase (Homo sapiens (Human), UniProt P35968). In words: KDR kinase inhibition (Table 4). In kind it is biochemical.
Assay [8] has as its target unphosphorylated c-KIT kinase (uKIT, Seq. ID no. 2) (Homo sapiens (Human), UniProt P10721). The assay can be described thus: uKit kinase assay (coupled pyruvate kinase/lactate dehydrogenase). In kind it is biochemical. To be noted: enzymatic assay, ATP 2000 μM. The method, boiled down:
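The read-out was a continuous PK/LDH-coupled decrease in NADH absorbance at 340 nm, monitored at 30 °C over 4 h. IC50 came from % inhibition based on rates at 3–4 h. The GST-tagged unphosphorylated KIT (12 nM) was used with polyE4Y substrate, 2000 μM ATP and 10 mM Mg2+ at pH 7.5, with serially diluted compound.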

Setting [9] is: enzymatic assay, ATP 500 μM, read-out: uFMS.

Like-named read-outs stand apart in the source and are kept apart here.

Sequence of unphosphorylated PDGFRβ kinase (uPDGFRβ, Seq. ID No. 3) (P09619 557-1106): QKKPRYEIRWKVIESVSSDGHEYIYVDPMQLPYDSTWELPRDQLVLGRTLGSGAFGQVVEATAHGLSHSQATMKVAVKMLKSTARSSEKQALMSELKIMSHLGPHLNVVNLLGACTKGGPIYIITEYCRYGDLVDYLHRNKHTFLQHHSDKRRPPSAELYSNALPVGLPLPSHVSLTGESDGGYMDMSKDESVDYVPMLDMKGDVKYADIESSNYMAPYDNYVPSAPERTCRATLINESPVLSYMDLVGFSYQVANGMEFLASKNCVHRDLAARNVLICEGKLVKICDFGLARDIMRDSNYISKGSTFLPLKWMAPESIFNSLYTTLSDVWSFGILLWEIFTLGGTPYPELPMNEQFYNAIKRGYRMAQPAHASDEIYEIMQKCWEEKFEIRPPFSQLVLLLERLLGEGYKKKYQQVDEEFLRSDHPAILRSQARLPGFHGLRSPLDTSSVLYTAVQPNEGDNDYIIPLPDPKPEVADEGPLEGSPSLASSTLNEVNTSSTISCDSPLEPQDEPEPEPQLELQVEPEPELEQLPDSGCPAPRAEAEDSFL
Sequence of unphosphorylated c-FMS kinase (uFMS, Seq. ID no. 1) (P07333 538-972): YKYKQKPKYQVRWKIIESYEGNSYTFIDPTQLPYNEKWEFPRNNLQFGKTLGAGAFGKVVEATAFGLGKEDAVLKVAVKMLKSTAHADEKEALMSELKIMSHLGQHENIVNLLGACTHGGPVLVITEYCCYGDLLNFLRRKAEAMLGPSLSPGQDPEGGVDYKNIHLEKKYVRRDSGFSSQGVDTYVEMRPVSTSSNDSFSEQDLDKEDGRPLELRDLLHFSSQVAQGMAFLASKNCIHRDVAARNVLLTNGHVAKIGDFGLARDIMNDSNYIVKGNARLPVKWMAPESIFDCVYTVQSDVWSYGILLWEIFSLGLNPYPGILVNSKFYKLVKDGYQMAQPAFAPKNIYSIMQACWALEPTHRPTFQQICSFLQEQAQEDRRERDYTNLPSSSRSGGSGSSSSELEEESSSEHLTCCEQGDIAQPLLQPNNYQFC
Sequence of cMET kinase (P08581 25-1390): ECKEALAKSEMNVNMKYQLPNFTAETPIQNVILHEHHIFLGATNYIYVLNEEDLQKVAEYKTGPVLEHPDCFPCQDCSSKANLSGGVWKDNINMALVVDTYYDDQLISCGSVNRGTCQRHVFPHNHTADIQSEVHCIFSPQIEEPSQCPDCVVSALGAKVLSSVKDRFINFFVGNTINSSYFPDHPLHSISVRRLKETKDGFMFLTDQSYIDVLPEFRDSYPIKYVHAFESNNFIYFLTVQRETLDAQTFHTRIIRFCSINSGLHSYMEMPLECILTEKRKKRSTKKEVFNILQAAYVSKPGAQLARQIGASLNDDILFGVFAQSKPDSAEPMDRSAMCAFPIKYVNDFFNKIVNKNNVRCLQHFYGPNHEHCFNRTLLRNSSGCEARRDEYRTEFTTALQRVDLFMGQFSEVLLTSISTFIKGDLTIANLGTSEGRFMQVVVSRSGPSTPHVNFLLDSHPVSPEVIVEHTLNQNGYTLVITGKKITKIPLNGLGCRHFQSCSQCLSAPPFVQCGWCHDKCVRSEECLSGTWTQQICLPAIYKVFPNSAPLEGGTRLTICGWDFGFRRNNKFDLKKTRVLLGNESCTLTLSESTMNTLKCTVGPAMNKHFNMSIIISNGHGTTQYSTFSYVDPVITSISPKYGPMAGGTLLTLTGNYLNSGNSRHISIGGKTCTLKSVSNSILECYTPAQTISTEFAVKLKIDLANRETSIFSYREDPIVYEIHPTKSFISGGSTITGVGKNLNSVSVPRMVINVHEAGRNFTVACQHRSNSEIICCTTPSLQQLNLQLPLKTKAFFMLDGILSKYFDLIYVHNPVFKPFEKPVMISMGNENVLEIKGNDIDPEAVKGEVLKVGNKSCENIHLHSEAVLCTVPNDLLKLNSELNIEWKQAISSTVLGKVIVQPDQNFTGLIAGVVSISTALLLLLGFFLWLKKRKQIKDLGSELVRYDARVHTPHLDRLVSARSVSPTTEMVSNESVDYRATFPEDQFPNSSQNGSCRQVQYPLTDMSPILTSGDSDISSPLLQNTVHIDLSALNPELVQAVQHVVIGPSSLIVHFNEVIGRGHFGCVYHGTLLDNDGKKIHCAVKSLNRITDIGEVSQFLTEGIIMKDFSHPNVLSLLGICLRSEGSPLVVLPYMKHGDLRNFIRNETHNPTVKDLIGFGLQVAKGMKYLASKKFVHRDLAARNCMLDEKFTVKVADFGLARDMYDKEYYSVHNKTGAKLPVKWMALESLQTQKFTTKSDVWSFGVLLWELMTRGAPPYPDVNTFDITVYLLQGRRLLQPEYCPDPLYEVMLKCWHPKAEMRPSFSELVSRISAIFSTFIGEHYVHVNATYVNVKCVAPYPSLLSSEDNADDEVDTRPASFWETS
Sequence of KDR kinase (P35968 20-1356): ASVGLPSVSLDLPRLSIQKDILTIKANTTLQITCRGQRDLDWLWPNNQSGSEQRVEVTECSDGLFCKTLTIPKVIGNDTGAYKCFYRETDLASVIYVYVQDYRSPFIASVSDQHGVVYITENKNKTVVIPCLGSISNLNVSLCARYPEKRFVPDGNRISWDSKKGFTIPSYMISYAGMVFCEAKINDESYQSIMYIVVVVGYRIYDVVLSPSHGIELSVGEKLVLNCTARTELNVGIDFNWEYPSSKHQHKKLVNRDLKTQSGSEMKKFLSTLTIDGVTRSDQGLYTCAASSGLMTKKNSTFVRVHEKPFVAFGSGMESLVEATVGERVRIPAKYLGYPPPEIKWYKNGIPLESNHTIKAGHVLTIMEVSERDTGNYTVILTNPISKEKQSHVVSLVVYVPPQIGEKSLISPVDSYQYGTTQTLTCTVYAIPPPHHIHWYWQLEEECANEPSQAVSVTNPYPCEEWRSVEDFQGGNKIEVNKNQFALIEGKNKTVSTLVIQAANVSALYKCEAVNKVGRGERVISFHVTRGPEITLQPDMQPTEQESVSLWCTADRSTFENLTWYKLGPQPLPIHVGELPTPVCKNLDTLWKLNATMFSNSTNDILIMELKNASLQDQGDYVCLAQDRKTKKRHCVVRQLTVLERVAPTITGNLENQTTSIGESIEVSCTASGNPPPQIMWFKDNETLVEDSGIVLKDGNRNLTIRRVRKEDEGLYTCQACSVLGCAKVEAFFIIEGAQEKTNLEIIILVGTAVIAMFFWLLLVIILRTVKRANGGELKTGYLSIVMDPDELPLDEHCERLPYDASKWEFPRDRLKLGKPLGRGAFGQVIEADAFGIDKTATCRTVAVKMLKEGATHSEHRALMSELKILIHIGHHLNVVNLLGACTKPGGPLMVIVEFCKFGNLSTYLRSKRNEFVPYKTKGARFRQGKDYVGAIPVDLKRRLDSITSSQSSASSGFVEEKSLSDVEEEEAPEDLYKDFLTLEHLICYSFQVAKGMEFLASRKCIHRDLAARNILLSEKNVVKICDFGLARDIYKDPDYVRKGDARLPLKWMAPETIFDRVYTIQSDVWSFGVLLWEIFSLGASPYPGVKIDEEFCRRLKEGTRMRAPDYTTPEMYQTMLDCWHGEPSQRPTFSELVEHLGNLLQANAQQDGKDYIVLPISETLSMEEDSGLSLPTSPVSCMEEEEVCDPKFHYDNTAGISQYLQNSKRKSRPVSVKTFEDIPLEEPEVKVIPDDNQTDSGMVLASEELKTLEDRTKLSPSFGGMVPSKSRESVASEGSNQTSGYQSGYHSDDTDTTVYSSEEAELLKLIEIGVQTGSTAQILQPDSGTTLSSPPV
Sequence of c-FMS kinase in THP-1 cells (P07333 20-972): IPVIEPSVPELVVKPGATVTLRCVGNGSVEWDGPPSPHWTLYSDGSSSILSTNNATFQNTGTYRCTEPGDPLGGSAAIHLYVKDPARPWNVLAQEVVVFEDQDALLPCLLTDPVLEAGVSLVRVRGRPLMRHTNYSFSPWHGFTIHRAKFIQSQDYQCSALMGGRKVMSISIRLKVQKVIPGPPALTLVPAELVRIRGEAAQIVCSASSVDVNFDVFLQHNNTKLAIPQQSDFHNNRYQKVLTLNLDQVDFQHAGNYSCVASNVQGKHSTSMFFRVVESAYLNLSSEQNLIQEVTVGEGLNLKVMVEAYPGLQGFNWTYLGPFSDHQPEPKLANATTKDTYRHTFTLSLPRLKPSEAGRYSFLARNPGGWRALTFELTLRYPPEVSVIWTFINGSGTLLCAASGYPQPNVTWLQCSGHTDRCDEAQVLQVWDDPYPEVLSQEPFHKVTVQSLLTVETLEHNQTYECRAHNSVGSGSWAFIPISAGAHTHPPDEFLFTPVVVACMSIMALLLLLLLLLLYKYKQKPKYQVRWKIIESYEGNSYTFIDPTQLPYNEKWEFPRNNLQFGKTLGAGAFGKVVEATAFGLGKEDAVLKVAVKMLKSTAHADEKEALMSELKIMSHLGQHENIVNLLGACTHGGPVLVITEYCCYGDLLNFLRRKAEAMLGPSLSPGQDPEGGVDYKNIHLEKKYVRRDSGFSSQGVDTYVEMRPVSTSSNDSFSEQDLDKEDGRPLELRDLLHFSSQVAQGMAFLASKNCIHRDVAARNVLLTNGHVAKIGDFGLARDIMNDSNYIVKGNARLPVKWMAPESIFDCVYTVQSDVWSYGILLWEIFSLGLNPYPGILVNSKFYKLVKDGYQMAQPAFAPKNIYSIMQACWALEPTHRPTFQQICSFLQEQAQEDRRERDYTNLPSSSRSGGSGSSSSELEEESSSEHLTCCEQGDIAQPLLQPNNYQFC

On to `Cn1cc(-c2cc(Oc3ccc(NC(=O)N4CCN(C5CCCCC5)C4=O)nc3)ccn2)cn1` [Example 15, 3-cyclohexyl-N-(5-((2-(1-methyl-1H-pyrazol-4-yl)pyridin-4-yl)oxy)pyridin-2-yl)-2-oxoimidazolidine-1-carboxamide], for which the IC50 in assay [1] was 10 to 100 nM; in assay [2], 370 nM; in assay [3], less than 10 nM; in assay [4] (Table 4, read-out: c-FMS IC50) it was 3 nM; in assay [4] (setting [9]) it was less than 10 nM; in assay [5], 10 to 100 nM. The IC50 was less than 10 nM in assay [6] and 670 nM in assay [7].

For `CNC(=O)c1cc(Oc2ccc(NC(=O)N3CCN(C(C)(C)C)C3=O)nc2)ccn1` [Example 90, 4-((6-(3-(tert-butyl)-2-oxoimidazolidine-1-carboxamido)pyridin-3-yl)oxy)-N-methylpicolinamide], the IC50 in assay [1] was 10 to 100 nM; in assay [2], greater than 5000 nM; in assay [8] it was 10 to 100 nM; in assay [3], 10 to 100 nM; in assay [4] (Table 4, read-out: c-FMS IC50), 5 nM; in assay [4] (setting [9]) it was less than 10 nM. Also, the IC50 was 10 to 100 nM in assay [6] and 3300 nM in assay [7].

With `CN(C)C(=O)Nc1cc(Oc2cc(F)c(NC(=O)N3CCN(C4CCOCC4)C3=O)cc2Cl)ccn1` [Example 101, N-(5-chloro-4-((2-(3,3-dimethylureido)pyridin-4-yl)oxy)-2-fluorophenyl)-2-oxo-3-(tetrahydro-2H-pyran-4-yl)imidazolidine-1-carboxamide], the IC50 is 100 to 1000 nM in assay [1]; 4000 nM in assay [2]; less than 10 nM in assay [3]; 8 nM in assay [4] (Table 4, read-out: c-FMS IC50); less than 10 nM in assay [4] (setting [9]); 10 to 100 nM in assay [5]. The results for the IC50 in assay [6] and in assay [7] were 10 to 100 nM and greater than 3300 nM, respectively.

As to `Cn1cc(-c2cc(Oc3cc(F)c(NC(=O)N4CCN(C5CCOCC5)C4=O)cc3F)ccn2)cn1` [Example 91, N-(2,5-difluoro-4-((2-(1-methyl-1H-pyrazol-4-yl)pyridin-4-yl)oxy)phenyl)-2-oxo-3-(tetrahydro-2H-pyran-4-yl)imidazolidine-1-carboxamide], the IC50 is greater than 5000 nM in assay [2]; 100 to 1000 nM in assay [8]; 10 to 100 nM in assay [3]; 7 nM in assay [4] (Table 4, read-out: c-FMS IC50); less than 10 nM in assay [4] (setting [9]); 10 to 100 nM in assay [5]. In addition, the IC50 in assay [6] was 10 to 100 nM; in assay [7] it was greater than 3300 nM.

Source of the values: US9133183B2, “Imidazolidinones and analogs exhibiting anti-cancer and anti-proliferative activities” (Deciphera Pharmaceuticals, LLC, priority 2013, dated 2015).
